According to ChEMBL document CHEMBL1140116, “Potent s-cis-locked bithiazole correctors of DeltaF508 cystic fibrosis transmembrane conductance regulator cellular processing for cystic fibrosis therapy” (J Med Chem, 2008):
Calls of active or inactive are those of the source. No cut-off for these calls is given here.

Biological target: Cystic fibrosis transmembrane conductance regulator (Homo sapiens) (UniProt P13569)
Test: Corrector activity at human CFTR deltaF508 mutant expressed in FRT cells assessed as iodide influx at 25 uM
Format: cell-based

Chain of Cystic fibrosis transmembrane conductance regulator (Homo sapiens) (P13569 whole entry, looked up): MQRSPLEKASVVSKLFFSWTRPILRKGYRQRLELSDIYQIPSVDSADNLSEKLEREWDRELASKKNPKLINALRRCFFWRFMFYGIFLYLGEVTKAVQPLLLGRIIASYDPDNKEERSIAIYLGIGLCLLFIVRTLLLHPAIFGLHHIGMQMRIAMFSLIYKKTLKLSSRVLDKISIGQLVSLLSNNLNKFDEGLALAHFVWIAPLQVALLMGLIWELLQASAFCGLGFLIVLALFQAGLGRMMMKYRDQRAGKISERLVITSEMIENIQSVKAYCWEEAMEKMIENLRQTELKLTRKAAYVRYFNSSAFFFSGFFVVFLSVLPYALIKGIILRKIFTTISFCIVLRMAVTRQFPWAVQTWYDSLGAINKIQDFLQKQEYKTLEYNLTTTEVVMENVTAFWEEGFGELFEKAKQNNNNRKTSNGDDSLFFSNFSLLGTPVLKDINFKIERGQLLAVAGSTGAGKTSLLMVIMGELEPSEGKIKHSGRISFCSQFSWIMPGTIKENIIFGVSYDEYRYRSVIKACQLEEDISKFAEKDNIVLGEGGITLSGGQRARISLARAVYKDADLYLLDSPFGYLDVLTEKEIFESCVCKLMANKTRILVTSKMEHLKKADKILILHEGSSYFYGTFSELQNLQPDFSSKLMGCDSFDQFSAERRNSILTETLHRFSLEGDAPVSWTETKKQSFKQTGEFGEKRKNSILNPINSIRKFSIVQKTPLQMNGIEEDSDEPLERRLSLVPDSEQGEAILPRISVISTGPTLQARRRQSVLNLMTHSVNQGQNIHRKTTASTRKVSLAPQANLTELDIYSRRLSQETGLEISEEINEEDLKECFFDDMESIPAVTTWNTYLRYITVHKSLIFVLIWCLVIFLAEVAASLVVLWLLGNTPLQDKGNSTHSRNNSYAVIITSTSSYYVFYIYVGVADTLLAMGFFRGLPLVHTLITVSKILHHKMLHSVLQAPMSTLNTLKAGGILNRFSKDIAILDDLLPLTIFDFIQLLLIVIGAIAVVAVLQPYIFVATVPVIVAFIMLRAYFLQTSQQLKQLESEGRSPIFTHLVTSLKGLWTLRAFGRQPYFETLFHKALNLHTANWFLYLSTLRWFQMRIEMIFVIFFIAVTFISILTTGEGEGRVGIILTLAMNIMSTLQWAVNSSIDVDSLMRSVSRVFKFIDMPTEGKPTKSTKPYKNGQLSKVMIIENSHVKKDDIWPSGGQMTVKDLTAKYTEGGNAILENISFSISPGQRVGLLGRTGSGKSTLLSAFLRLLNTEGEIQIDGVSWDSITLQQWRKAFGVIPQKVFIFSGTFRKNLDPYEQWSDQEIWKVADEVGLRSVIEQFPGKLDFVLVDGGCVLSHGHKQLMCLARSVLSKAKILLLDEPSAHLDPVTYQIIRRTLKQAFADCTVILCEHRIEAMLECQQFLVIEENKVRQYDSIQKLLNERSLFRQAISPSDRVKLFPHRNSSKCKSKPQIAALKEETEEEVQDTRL

Compound | Activity
COc1ccc(Cl)cc1Nc1nc2c(s1)CCCc1nc(NC(=O)C(C)(C)C)sc1-2 | Active
COc1ccc(Cl)cc1Nc1nc(-c2cccc(NC(=O)C(C)(C)C)c2)c(C)s1 | inactive
COc1ccc(Cl)cc1Nc1nc(-c2cccc(NC(=O)C(C)(C)C)c2)cs1 | inactive

Other lines, results leading:

Activity | Compound
Active | COc1ccc(Cl)cc1Nc1nc(-c2cnc(NC(=O)C(C)(C)C)s2)cs1
inactive | COc1ccc(Cl)cc1Nc1nc(C)c(-c2csc(NC(=O)C(C)(C)C)n2)s1
Active | COc1ccc(Cl)cc1Nc1nc(-c2sc(NC(=O)C(C)(C)C)nc2C)cs1
